From patent US20040209246A1, “Dual reporter/dye reduction methodology for evaluating antiviral and cytotoxicity of hepatitis C virus inhibitors” (Agouron Pharmaceuticals, Inc., priority 2003, published 2004) come the findings set out here.

Several values for one entry are separate records, joined by “and”; a condition that tells them apart may be missing. Equal entries are not always repeated. Where two headings read alike, the source gives them in different places.

Data set [1] has as its system reporter-selectable HCV replicon BB7M4hRLuc in BB7 M4 hRLuc#10 Huh-7 cells. The data set can be described thus: HCV replicon hRLuc reporter antiviral assay, cell line #10. Format: cell-based, Hepatitis C virus. The conditions noted are these: cell line #10, hRLuc endpoint, three days incubation. The procedure:
(§1) An HCV replicon reporter assay system can be developed to determine the specific antiviral activity of inhibitors in standard dose response assays. In such assays, the reporter-selectable containing Huh-7 cells are incubated in 96 wells containing serial dilutions of test inhibitors or no inhibitor. At a specified time after incubation, the activities of the viral-encoded reporter genes are measured in the cell lines using the appropriate reporter assay methodologies. Data from the reporter gene measurements can be expressed as the percent of reporter gene activity in inhibitor-treated cells relative to that of inhibitor-free cells. An analysis of the antiviral component of such data allows for the calculation of the fifty-percent effective concentration (EC50).
In another embodiment of the invention, the dual antiviral activity/cytotoxicity reporter assay system, in conjunction with recording cytotoxicity in the same wells by the dye reduction method, can be used to determine the specific antiviral activity of inhibitors in standard dose response assays using three endpoints. In such assays, target cells containing the reporter-selectable replicon in microtiter are incubated for a desired duration of time at 37° C. and 5% CO2 with plates containing serial dilutions of test inhibitors or no inhibitor. After the incubation period, the activities of the viral and target cell-encoded reporter genes, as well as cytotoxicity by the dye reduction method, are measured using the appropriate dual reporter assay methods subsequent to the measurement of cellular proliferation by dye reduction. Data from the reporter gene and cellular proliferation measurements can be expressed as the percent of reporter gene activity or optical density (OD) reading in inhibitor-treated cells relative to that of inhibitor-free cells. […] The therapeutic index (TI), which is a measurement of the specific antiviral activity of an inhibitor, can then be calculated by dividing the cytotoxicity (CC50) by the antiviral activity (EC50).
On the technique in general: Replicon systems follow genome replication, usually without infectious particles.

Data set [2] concerns reporter-selectable HCV replicon BB7M4hRLuc in B6b Huh-7 cells. The data set can be described thus: HCV replicon hRLuc reporter antiviral assay, dual reporter cell line B6b. The format is cell-based, Hepatitis C virus. The conditions noted are these: hRLuc endpoint, three days incubation. The procedure: as §1
In another embodiment of the invention, the dual antiviral activity/cytotoxicity reporter assay system, in conjunction with recording cytotoxicity in the same wells by the dye reduction method, can be used to determine the specific antiviral activity of inhibitors in standard dose response assays using three endpoints. In such assays, target cells containing the reporter-selectable replicon in microtiter are incubated for a desired duration of time at 37° C. and 5% CO2 with plates containing serial dilutions of test inhibitors or no inhibitor. After the incubation period, the activities of the viral and target cell-encoded reporter genes, as well as cytotoxicity by the dye reduction method, are measured using the appropriate dual reporter assay methods subsequent to the measurement of cellular proliferation by dye reduction. Data from the reporter gene and cellular proliferation measurements can be expressed as the percent of reporter gene activity or optical density (OD) reading in inhibitor-treated cells relative to that of inhibitor-free cells. An analysis of the antiviral component of such data allows for the calculation of the fifty-percent effective concentration (EC50) or ninety-percent effective concentration […] of an inhibitor. In addition, an analysis of the cytotoxicity component of the data can be used to calculate the 50% cytotoxicity concentration (CC50) of an inhibitor. The therapeutic index (TI), which is a measurement of the specific antiviral activity of an inhibitor, can then be calculated by dividing the cytotoxicity (CC50) by the antiviral activity (EC50).

Data set [3] has as its system BB7 M4 hRLuc#10 replicon cell line (Huh-7). The data set can be described thus: XTT dye reduction cytotoxicity, cell line #10. The conditions noted are these: read-out: CC50 (XTT); cell line #10, XTT dye reduction, three days incubation. From the text:
(§2) In the current invention, two end points will be used to measure CC50 values. The first is XTT dye reduction methodology and the second is the use of the second reporter gene integrated in the nucleus of cells carrying the reporter-selectable HCV replicons. In case of both methodologies, a CC50 value will be generated from the same wells from which an EC50 value was obtained. The CC50 value would be generated by calculating % cytotoxicity of the inhibitor/compound treated wells compared to the no inhibitor/compound well resulting in generation of a dose dependent curve to obtain the value that was responsible for the death of 50% of the cells.
(§3) Cell line BB7 M4 hRLuc#10 was grown in DMEM without phenol red (catalog # 1053-028) at 10% FBS with 4 mM L-glutamine, 1×Pen-step, 1×non-essential amino acids, and 200 μg/ml G418 (all from Gibco BRL/Invitrogen). Line B6b was grown in the same media with the addition of 6 μg/ml Blasticidin (ICN Biomedicals). Experiments in these replicon lines were carried out in 96-well black wall, clear-bottom plates (Costar®; Corning Incorporated). Cells were seeded as diagrammed in the figure below at a density of 2×10^4/well in 100 μl DMEM (described above) without G418 or Blasticidin. […]
(§4) Cell line BB7 M4 hRLuc #10 contained the selectable reporter replicon BB7 M4-hRLuc, which served as an anti-viral marker, but cytotoxicity had to be measured by XTT. […]
For orientation: Formazan colour is commonly taken as a measure of viable cells.

The test system of data set [4] is B6b dual reporter replicon cell line (Huh-7). The data set can be described thus: XTT dye reduction cytotoxicity, cell line B6b. The settings on record: read-out: CC50 (XTT), three days incubation.
Text: as §2, §3, §4

The test system is the same in data set [5]. The settings on record: read-out: CC50 (FLuc), three days incubation.
Text: as §2, §3, §4

For `OC[C@H]1O[C@@H](n2cnc3cc(Cl)c(Cl)cc32)[C@H](O)[C@@H]1O` [DRB, 5,6-dichlorobenzimidazole riboside], the EC90 in data set [1] is 50.2 µM and 58 µM; in data set [2] (read-out: EC90) it was 43.5 µM and 55 µM. Further, the EC50 in data set [1] (read-out: EC50) was 21.5 µM and 33.2 µM; in data set [2] (read-out: EC50), 34.1 µM and 53.7 µM. The CC50 (in general, the concentration giving 50% cytotoxicity) is 53.6 µM and 48.7 µM in data set [3]; 48.7 µM and 40.4 µM in data set [4]; 85.1 µM and 60.7 µM in data set [5].

As for interferon alpha [IFN], the EC50 in data set [1] is 0.38 IU/ml and 0.67 IU/ml. In data set [2], the EC50 is 0.39 IU/ml and 0.43 IU/ml; the EC90 was 2.1 IU/ml and 2.6 IU/ml.
